For assay [1], the system named is Listeria monocytogenes (ATCC 19112). The following applies: preliminary peptide screen, peptide purities 50% to 81.9%, tested 1-64 µg/mL, broth microdilution, mean ± SD, n = 3. As for the experimental part:
(§1) Antimicrobial activity of histone H5 against a variety of Gram-positive and Gram-negative planktonic bacteria was evaluated using a broth microdilution assay.
(§2) The antimicrobial activity of these peptides against Gram-positive and Gram-negative planktonic bacteria was evaluated using broth microdilution assays.
(§3) The bacterial strains tested in this study were Gram-positive bacteria (Bacillus cereus (ATCC 11778), methicillin-sensitive Staphylococcus aureus (ATCC 6538), methicillin-resistant Staphylococcus aureus (ATCC 29247), Listeria monocytogenes (ATCC 19112), Enterococcus faecalis (clinical isolate) and vancomycin-resistant Enterococcus (ATCC 51299)) and Gram-negative bacteria Escherichia coli K12 (ATCC 29425), Escherichia coli (O157:H7), Pseudomonas aeruginosa (ATCC 15442) and Salmonella typhimurium (ATCC 1535)). Bacterial colonies from glycerol stocks were plated on LB agar plates (BHI agar plates for L. monocytogenes) and incubated overnight at 37 °C. Single colonies from these plates were grown in 3 mL of LB broth (BHI broth for L. monocytogenes) overnight at 37 °C and shaken at 250 rpm. […] The bacterial suspension was pelleted at 3,000 × g, 4 °C for 10 minutes and washed with PBS (twice), and then adjusted to 10^5–10^6 CFUs/mL in PBS.
(§4) Supplementary Information
(§5) Broth microdilution assay
(§6) The protocol for this step of the project was based on established methods22. Histone H5 or the peptides were dissolved in sterile water, pH 7.4, serially two-fold diluted and aliquoted in a 1:1 (v/v) ratio with bacteria. Kanamycin or ampicillin served as a positive control for inhibition, and sterile water (pH 7.4) as a negative control for inhibition. The tubes were then incubated for 3 hours at 37°C an d shaken at 200 rpm. Next, 100 µL of each tube and 100µL of LB broth (BHI broth for L. monocytogenes) was plated in wells of a 96-well microplate. The microplate was incubated in the EON microplate reader overnight at 206 oscillations/min and at 37°C. During this period, the EON microplate spectrophotometer and Gen5 data analysis software (BioTek, Winooski, VT, USA) were used to monitor the growth of bacteria by measuring the optical density at 600 nm every 30 minutes for 18 hours. The lowest protein concentration without visible bacterial growth was designated as the minimum inhibitory concentration (MIC). Bacteria (10 µL) from the wells at MIC, MIC x 2 and MIC x 3 concentrations of H5 were plated on LB agar (BHI agar for L. monocytogenes) and incubated at 37°C for 18 hours. The lowest concentration of histone H5 without a single colony was designated as the minimum bactericidal concentration (MBC).
In general terms: In broth dilution the organism is exposed to a series of concentrations in liquid medium.

Assay [2] relates to Pseudomonas aeruginosa (ATCC 15442). Conditions: preliminary peptide screen, peptide purities 50% to 81.9%, tested 1-64 µg/mL, broth microdilution, mean ± SD, n = 3. As for the experimental part: as §1, §2, §3, §4, §5, §6
The next assay deals with E. coli. Set-up: method as in PMID 22723861, PMID 16978580. The following applies: cited from earlier work.
For another assay, the system named is S. aureus. Set-up: method as in PMID 22723861, PMID 16978580. Conditions: cited from earlier work.
A further assay deals with P. aeruginosa. Set-up: method as in PMID 22723861, PMID 16978580. Conditions: cited from earlier work.
A further assay relates to E. faecalis. Set-up: method as in PMID 22723861, PMID 16978580. The following applies: cited from earlier work.
The subject of the next assay is P. aeruginosa biofilms. Conditions: cited from earlier work. An excerpt:
(§7) L. monocytogenes and P. aeruginosa are major human pathogens that cause serious illnesses through foodborne and hospital-acquired infections, respectively. […] Moreover, an estimated 51,000 healthcare-associated infections leading to 440 deaths per year in the United States are caused by P. aeruginosa. Additionally, both pathogens have the ability to form biofilms, which enhances their persistence in unfavourable environ ...

Assay [3] concerns L. monocytogenes biofilms. The following applies: 6.8 µg/mL, 2 and 4 hours of treatment, cited from earlier work.
Source text: as §7

Read-outs that look alike come from different tables or passages of the source. Marks after values point to notes of the source that are not given here. Ends that are not written are not given here.

The MIC is the lowest concentration that inhibits growth of the organism.

With EMIAAAIRAEKSRGGSSRQS [H5(31–50)], the MIC result in assay [1] is “inactive”; in assay [1] (listed as H5 (31–50)), “NI ^‡ (Non-inhibitory at the highest concentration tested (64 µg/mL))”; in assay [2], “non-inhibitory”; in assay [2] (listed as H5 (31–50)) it was “NI ^‡ (Non-inhibitory at the highest concentration tested (64 µg/mL))”.

As to “EMIAAAIRAEKSRGGSSRQSIQKYIKSHYK [H5(31–60)]”, the MIC result in assay [1] was “inactive”; in assay [1] (listed as H5 (31–60)), “NI ^‡ (Non-inhibitory at the highest concentration tested (64 µg/mL))”; in assay [2], “non-inhibitory”; in assay [2] (listed as H5 (31–60)), “NI ^‡ (Non-inhibitory at the highest concentration tested (64 µg/mL))”.

For the substance “Human β-defensin-3: a human host defence antimicrobial peptide (GIINTLQKYYCRVRGGRCAVLSCLPKEEQIGKCSTRGRKCCRRKK; ends and bridges not checked; cysteine pairing not given here; UniProt P81534 23-67, looked up)”, the MIC is reported as 6 µg/mL with E. coli, 12 µg/mL in the assay on S. aureus, 13 µg/mL with P. aeruginosa and more than 512 µg/mL in the assay with E. faecalis.

With LL-37, in the assay on P. aeruginosa biofilms, the MBEC is 640 µg/mL and the MBEC/MIC ratio was 5–80.

With LSIRRLLAAGVLKQTKGVGA [H5(71–90)], the MIC in assay [1] was >64^† µg/mL; in assay [2] it was 26.7 ± 14.1 µg/mL.

“RVKASRRSASHPTYSEMIAAAIRAEKSRGG [H5(16–45)]”: the MIC result in assay [1] is “inactive”; in assay [1] (listed as H5 (16–45)), “NI ^‡ (Non-inhibitory at the highest concentration tested (64 µg/mL))”; in assay [2], “non-inhibitory”; in assay [2] (listed as H5 (16–45)), “NI ^‡ (Non-inhibitory at the highest concentration tested (64 µg/mL))”.

Turning to VLKQTKGVGASGSFRLAKSD [H5(81–100)], the MIC result was “inactive” in assay [1], “NI ^‡ (Non-inhibitory at the highest concentration tested (64 µg/mL))” in assay [1] (listed as H5 (81–100)), “non-inhibitory” in assay [2] and “NI ^‡ (Non-inhibitory at the highest concentration tested (64 µg/mL))” in assay [2] (listed as H5 (81–100)).

Turning to magainin II, the MBEC in the assay on P. aeruginosa biofilms is listed as more than 640 µg/mL.

Consider “melittin: CAMP tested against P. aeruginosa biofilms in the literature”, for which the MBEC with P. aeruginosa biofilms is more than 640 µg/mL.

Regarding paenibacterin, the “disruption of established biofilms (in words)” value in assay [3] (biofilms developed statically at 30 °C) is listed as “effective”; in assay [3] (stronger biofilms developed at 37 °C), “not effective”.
